The source made the active and inactive calls. No cut-off for these calls is given here.
Columns and labels:
[1] = Intrinsic clearance in human liver microsomes; type: ADME, Microsome; conditions: read-out: CLH
[2] = tested on: HEK293; assay: Substrate activity at human OCT1*7 allele mutant expressed in HEK293 cells assessed as increase in compound uptake at 0.1 uM incubated for 2 mins by LC-MS/MS analysis relative to control empty vector transfected cells; type: cell-based
[3] = tested on: HEK293; assay: Substrate activity at human OCT1*4 allele mutant expressed in HEK293 cells assessed as increase in compound uptake at 0.1 uM incubated for 2 mins by LC-MS/MS analysis relative to control empty vector transfected cells; type: cell-based
[4] = molecular target: T1, Solute carrier family 22 member 1 (Homo sapiens, UniProt O15245); assay: Substrate activity at human OCT1 expressed in HEK293 cells assessed as increase in compound uptake by measuring Vmax incubated for 2 mins by LC-MS/MS analysis based Michaelis-Menten plot analysis relative to control empty vector transfected cells; type: cell-based; conditions: hek293, 2 min
T1 sequence (O15245 whole entry): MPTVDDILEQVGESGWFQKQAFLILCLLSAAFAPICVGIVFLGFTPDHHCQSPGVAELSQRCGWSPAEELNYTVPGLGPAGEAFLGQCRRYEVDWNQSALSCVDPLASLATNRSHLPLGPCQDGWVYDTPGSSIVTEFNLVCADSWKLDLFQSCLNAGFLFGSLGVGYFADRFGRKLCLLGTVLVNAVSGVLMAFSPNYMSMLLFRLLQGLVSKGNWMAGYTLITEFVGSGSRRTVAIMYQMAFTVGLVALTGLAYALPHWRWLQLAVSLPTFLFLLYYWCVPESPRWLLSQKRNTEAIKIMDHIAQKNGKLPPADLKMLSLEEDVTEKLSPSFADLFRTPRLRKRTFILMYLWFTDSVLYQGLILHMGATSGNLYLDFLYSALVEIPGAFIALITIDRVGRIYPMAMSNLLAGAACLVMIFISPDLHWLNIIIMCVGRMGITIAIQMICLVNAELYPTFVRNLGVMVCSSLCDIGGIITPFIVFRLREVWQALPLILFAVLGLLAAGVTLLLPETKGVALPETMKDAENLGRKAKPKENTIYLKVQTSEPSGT

[5] = molecular target: T2, OCT1 (SLC22A1) (Homo sapiens, UniProt O15245); assay: Substrate activity at human OCT1 expressed in HEK293 cells assessed as increase in compound uptake by measuring Km incubated for 2 mins by LC-MS/MS analysis based Michaelis-Menten plot analysis relative to control empty vector transfected cells; type: cell-based; conditions: HEK293 cells that express human OCT1
T2 sequence (O15245 whole entry): T1 sequence (O15245 whole entry)

[6] = Unbound maximal portal vein concentration of in human at 450 mg, po; type: ADME, tissue-based; conditions: in vivo
[7] = tested on: HEK293; assay: Substrate activity at human OCT1*5 allele mutant expressed in HEK293 cells assessed as increase in compound uptake at 0.1 uM incubated for 2 mins by LC-MS/MS analysis relative to control empty vector transfected cells; type: cell-based
[8] = tested on: HEK293; assay: Substrate activity at human OCT1*2 allele mutant expressed in HEK293 cells assessed as increase in compound uptake at 0.1 uM incubated for 2 mins by LC-MS/MS analysis relative to control empty vector transfected cells; type: cell-based
[9] = tested on: HEK293; assay: Substrate activity at human OCT1*6 allele mutant expressed in HEK293 cells assessed as increase in compound uptake at 0.1 uM incubated for 2 mins by LC-MS/MS analysis relative to control empty vector transfected cells; type: cell-based
[10] = tested on: HEK293; assay: Substrate activity at human OCT1*3 allele mutant expressed in HEK293 cells assessed as increase in compound uptake at 0.1 uM incubated for 2 mins by LC-MS/MS analysis relative to control empty vector transfected cells; type: cell-based
[11] = molecular target: T1, Solute carrier family 22 member 1; assay: Inhibition of human OCT1 expressed in HEK293 cells assessed as reduction in ASP+ substrate uptake by microplate reader based analysis; type: cell-based
[12] = tested on: HEK293; assay: Substrate activity at human OCT1*8 allele mutant expressed in HEK293 cells assessed as increase in compound uptake at 0.1 uM incubated for 2 mins by LC-MS/MS analysis relative to control empty vector transfected cells; type: cell-based
[13] = Unbound Cmax in human at 450 mg, po; type: ADME; conditions: in vivo
[14] = Cmax in human at 450 mg, po; type: ADME; design: dose 450 mg, route oral; conditions: in vivo
[15] = molecular target: T2, OCT1 (SLC22A1); assay: Substrate activity at human OCT1 expressed in HEK293 cells assessed as increase in compound uptake at 0.05 uM incubated for 2 mins by LC-MS/MS analysis relative to control empty vector transfected cells; type: cell-based; conditions: HEK293 cells that express human OCT1, read-out: FC
[16] = molecular target: T2, OCT1 (SLC22A1); assay: Substrate activity at human OCT1 expressed in HEK293 cells assessed as increase in compound uptake at 0.5 uM incubated for 2 mins by LC-MS/MS analysis relative to control empty vector transfected cells; type: cell-based; conditions: HEK293 cells that express human OCT1, read-out: FC
[17] = Unbound maximal portal vein concentration of in human at 5 mg, po dosed as immediate release formulation; type: ADME, organism-based; conditions: in vivo
[18] = Unbound Cmax in human at 5 mg, po dosed as immediate release formulation; type: ADME, organism-based; conditions: in vivo
[19] = in vitro; conditions: PAMPA
Description: Passive membrane permeability by LC-MS/MS analysis based PAMPA

[20] = Ratio of unbound maximal portal vein concentration in human at 5 mg, po dosed as immediate release formulation to inhibition of human OCT1 expressed in HEK293 cells assessed as reduction in ASP+ substrate uptake by microplate reader based analysis; type: ADME, organism-based; conditions: in vivo
[21] = molecular target: T2, OCT1 (SLC22A1); assay: Substrate activity at human OCT1 expressed in HEK293 cells assessed as increase in compound uptake at 0.1 uM incubated for 2 mins by LC-MS/MS analysis relative to control empty vector transfected cells; type: cell-based; conditions: HEK293 cells that express human OCT1, read-out: FC
[22] = Ratio of unbound Cmax in human at 5 mg, po dosed as immediate release formulation to inhibition of human OCT1 expressed in HEK293 cells assessed as reduction in ASP+ substrate uptake by microplate reader based analysis; type: ADME, organism-based; conditions: in vivo
[23] = Cmax in human at 5 mg, po dosed as immediate release formulation; type: ADME, organism-based; design: dose 5 mg, route oral; conditions: in vivo
[24] = Ratio of unbound maximal portal vein concentration in human at 10 mg, po dosed as controlled release formulation to inhibition of human OCT1 expressed in HEK293 cells assessed as reduction in ASP+ substrate uptake by microplate reader based analysis; type: ADME, organism-based; conditions: in vivo
[25] = Ratio of unbound Cmax in human at 10 mg, po dosed as controlled release formulation to inhibition of human OCT1 expressed in HEK293 cells assessed as reduction in ASP+ substrate uptake by microplate reader based analysis; type: ADME, organism-based; conditions: in vivo
[26] = Unbound maximal portal vein concentration of in human at 10 mg, po dosed as controlled release formulation; type: ADME, organism-based; conditions: in vivo
[27] = Cmax in human at 10 mg, po dosed as controlled release formulation; type: ADME, organism-based; design: dose 10 mg, route oral; conditions: in vivo
[28] = Unbound Cmax in human at 10 mg, po dosed as controlled release formulation; type: ADME, organism-based; conditions: in vivo
[29] = Unbound maximal portal vein concentration of in human at 4 mg, po; type: ADME, tissue-based; conditions: in vivo
[30] = molecular target: T1, Solute carrier family 22 member 1; assay: Substrate activity at OCT1 in primary human hepatocytes assessed as increase in compound uptake at 0.1 uM incubated for 2 mins by LC-MS/MS analysis relative to control; type: cell-based
[31] = Cmax in human at 4 mg, po; type: ADME; design: dose 4 mg, route oral; conditions: in vivo
[32] = Unbound Cmax in human at 4 mg, po; type: ADME; conditions: in vivo
[33] = Unbound maximal portal vein concentration of in human at 60 mg, po; type: ADME, tissue-based; conditions: in vivo
[34] = Unbound Cmax in human at 60 mg, po; type: ADME; conditions: in vivo
[35] = Ratio of unbound maximal portal vein concentration in human at 60 mg, po to inhibition of human OCT1 expressed in HEK293 cells assessed as reduction in ASP+ substrate uptake by microplate reader based analysis; type: ADME, organism-based; conditions: in vivo
[36] = Ratio of unbound Cmax in human at 60 mg, po to inhibition of human OCT1 expressed in HEK293 cells assessed as reduction in ASP+ substrate uptake by microplate reader based analysis; type: ADME, organism-based; conditions: in vivo
[37] = Cmax in human at 60 mg, po; type: ADME; design: dose 60 mg, route oral; conditions: in vivo
[38] = Unbound Cmax in human at 50 mg, po; type: ADME; conditions: in vivo
[39] = Unbound Cmax in human at 50 mg, iv; type: ADME; conditions: in vivo
[40] = Cmax in human at 50 mg, iv; type: ADME; design: dose 50 mg, route intravenous; conditions: in vivo
[41] = Ratio of unbound Cmax in human at 50 mg, iv to inhibition of human OCT1 expressed in HEK293 cells assessed as reduction in ASP+ substrate uptake by microplate reader based analysis; type: ADME, organism-based; conditions: in vivo
[42] = Cmax in human at 50 mg, po; type: ADME; design: dose 50 mg, route oral; conditions: in vivo
[43] = Ratio of unbound maximal portal vein concentration in human at 50 mg, iv to inhibition of human OCT1 expressed in HEK293 cells assessed as reduction in ASP+ substrate uptake by microplate reader based analysis; type: ADME, organism-based; conditions: in vivo
[44] = Ratio of unbound maximal portal vein concentration in human at 50 mg, po to inhibition of human OCT1 expressed in HEK293 cells assessed as reduction in ASP+ substrate uptake by microplate reader based analysis; type: ADME, organism-based; conditions: in vivo
[45] = Ratio of unbound Cmax in human at 50 mg, po to inhibition of human OCT1 expressed in HEK293 cells assessed as reduction in ASP+ substrate uptake by microplate reader based analysis; type: ADME, organism-based; conditions: in vivo
[46] = Unbound maximal portal vein concentration of in human at 50 mg, po; type: ADME, tissue-based; conditions: in vivo
[47] = Unbound maximal portal vein concentration of in human at 50 mg, iv; type: ADME, tissue-based; conditions: in vivo
[48] = Cmax in human at 10 mg, po dosed as immediate release formulation; conditions: in vivo
[49] = Cmax in human at 10 mg, im; conditions: in vivo
[50] = Cmax in human at 50 mg, po dosed as slow release formulation; conditions: in vivo
[51] = Cmax in human at 10 mg, iv; conditions: in vivo

Structure (SMILES): C[N+]1(CC2CC2)CC[C@]23c4c5ccc(O)c4O[C@H]2C(=O)CC[C@@]3(O)[C@H]1C5 (stereo not given in full) [METHYLNALTREXONE]
- microsomal CLint [1]: 32 µL/min/mg
- Activity [2]: Active
- Activity [3]: inactive
- Vmax [4]: 371.9 pmol/min/mg
- Km at 2 min [5]: 20 to 20.3 µM
- fCmax [6]: 64.93 µM
- Activity [7]: inactive
- Activity [8]: inactive
- Activity [9]: inactive
- Activity [10]: inactive
- IC50 [11]: 234 µM
- Activity [12]: Active
- fCmax [13]: 0.12 µM
- Cmax [14]: 140 nM

Structure (SMILES): COc1ccc2c3c1O[C@H]1C(=O)CC[C@@]4(O)[C@@H](C2)N(C)CC[C@]314 [OXYCODONE]
- uptake ratio at 2 min, 0.05 µM [15]: 0.9
- uptake ratio at 2 min, 0.5 µM [16]: 0.9
- fCmax [17]: 0.54 µM
- fCmax [18]: 0.03 µM
- Papp [19]: 17.9 ×10⁻⁶ cm/s
- Ratio [20]: 0.0003
- uptake ratio at 2 min, 0.1 µM [21]: 0.8
- Ratio [22]: 0.00001
- Cmax [23]: 50 nM
- IC50 [11]: 2000 µM
- Ratio [24]: 0.001
- Ratio [25]: 0.00001
- fCmax [26]: 1.06 µM
- Cmax [27]: 50 nM
- fCmax [28]: 0.03 µM

Structure (SMILES): CN1CC[C@]23c4c5ccc(O)c4O[C@H]2C(=O)CC[C@H]3[C@H]1C5 [HYDROMORPHONE]
- fCmax [29]: 0.72 µM
- Activity [2]: Active
- fold change (FC) [30]: 1.7
- Activity [3]: inactive
- Activity [8]: inactive
- Cmax [31]: 40 nM
- Activity [9]: inactive
- Activity [10]: inactive
- IC50 [11]: 138 µM
- fCmax [32]: 0.03 µM
- Activity [12]: Active

Structure (SMILES): COc1ccc2c(c1)[C@]13CCCC[C@@H]1[C@H](C2)N(C)CC3 [DEXTROMETHORPHAN]
- uptake ratio at 2 min, 0.05 µM [15]: 1.1
- uptake ratio at 2 min, 0.5 µM [16]: 0.8
- fCmax [33]: 4.57 µM
- fCmax [34]: 0.007 µM
- Papp [19]: 63.7 ×10⁻⁶ cm/s
- Ratio [35]: 0.302
- uptake ratio at 2 min, 0.1 µM [21]: 1.3
- Ratio [36]: 0.0004
- IC50 [11]: 15 to 15.1 µM
- Cmax [37]: 20 nM

Structure (SMILES): CCOC(=O)[C@@]1(c2ccccc2)CCC=C[C@@H]1N(C)C
- uptake ratio at 2 min, 0.05 µM [15]: 1.3
- uptake ratio at 2 min, 0.5 µM [16]: 1.3
- fCmax [38]: 0.08 µM
- fCmax [39]: 2.49 µM
- Papp [19]: 31.6 ×10⁻⁶ cm/s
- Cmax [40]: 3310 nM
- Ratio [41]: 0.064
- uptake ratio at 2 min, 0.1 µM [21]: 1.3
- Cmax [42]: 110 nM
- Ratio [43]: 0.273
- Ratio [44]: 0.211
- Ratio [45]: 0.002
- IC50 [11]: 38.7 µM
- fCmax [46]: 8.18 µM
- fCmax [47]: 10.58 µM

Structure (SMILES): CN1CC[C@]23c4c5ccc(O)c4O[C@H]2[C@@H](O)C=C[C@H]3[C@H]1C5 [MORPHINE]
- Cmax [48]: 40 nM
- Cmax [49]: 250 nM
- Cmax [50]: 30 nM
- Cmax [51]: 1050 nM
- IC50 [11]: 71.8 to 72 µM

Source: ChEMBL document CHEMBL4321821, “Opioids as Substrates and Inhibitors of the Genetically Highly Variable Organic Cation Transporter OCT1” (J Med Chem, 2019)
